{
  "source": "patent US20200352905A1",
  "about": "“6-(2,4-DICHLOROPHENYL)-5-[4-[(3S)-1-(3-FLUOROPROPYL)PYRROLIDIN-3-YL]OXYPHENYL]-8,9-DIHYDRO-7H-BENZO[7]ANNULENE-2-CARBOXYLIC ACID FOR USE IN METASTATIC OR ADVANCED BREAST CANCER PATIENTS” (SANOFI, priority 2019, published 2020)",
  "assay": "TED14856 Part A: plasma pharmacokinetics of compound (1)",
  "format": "in vivo, human",
  "note": "Like-named read-outs stand apart in the source and are kept apart here.",
  "data": [
    {"smiles": "O=C(O)c1ccc2c(c1)CCCC(c1ccc(Cl)cc1Cl)=C2c1ccc(O[C@H]2CCN(CCCF)C2)cc1", "note": "[compound (1), 6-(2,4-dichlorophenyl)-5-[4-[(3S)-1-(3-fluoropropyl)pyrrolidin-3-yl]oxyphenyl]-8,9-dihydro-7H-benzo[7]annulene-2-carboxylic acid]", "values": [
      {"measurement": "variability of exposure parameters (average CV)", "setting": "after repeated administrations", "result": "~45", "unit": "%"},
      {"measurement": "total variability of exposure parameters (average CV)", "setting": "after single dose administration", "result": "> 60", "unit": "%"},
      {"measurement": "Cmax", "setting": "female, human, plasma, oral, 20 mg, single 20 mg, Cycle1 Day 1, fasted, N=3, read-out: Cmax (Mean ± SD)", "result": "187 ± 46.7", "unit": "ng/mL"},
      {"measurement": "Cmax", "setting": "female, human, plasma, oral, 150 mg, single 150 mg, Cycle1 Day 1, fasted, N=3, read-out: Cmax (Mean ± SD)", "result": "1310 ± 1380", "unit": "ng/mL"},
      {"measurement": "Cmax", "setting": "female, human, plasma, oral, 200 mg, single 200 mg, Cycle1 Day 1, fasted, N=4, read-out: Cmax (Mean ± SD)", "result": "1650 ± 1340", "unit": "ng/mL"},
      {"measurement": "Cmax", "setting": "female, human, plasma, oral, 400 mg, single 400 mg, Cycle1 Day 1, fasted, N=3, read-out: Cmax (Mean ± SD)", "result": "4740 ± 2920", "unit": "ng/mL"},
      {"measurement": "Tmax", "setting": "female, human, plasma, oral, 20 to 600 mg once a day, fasting, Day 1 and Day 22 Cycle 1, read-out: median time to achieve maximum concentration (tmax)", "result": "~3", "unit": "h"},
      {"measurement": "clearance", "setting": "female, human, plasma, oral, across the 20-600 mg range, read-out: mean apparent systemic clearance", "result": "233 to 250", "unit": "mL/min"},
      {"measurement": "Vd", "setting": "female, human, plasma, oral, across the 20-600 mg range, read-out: mean apparent volume of distribution", "result": "~120", "unit": "L"},
      {"measurement": "half-life", "setting": "female, human, plasma, oral, estimated over 48 hours after a single dose on Day 1, read-out: mean apparent terminal half-life", "result": "≥ 8", "unit": "h"},
      {"measurement": "AUC(0-t)", "setting": "human, plasma, oral, 20 mg, repeated 20 mg once daily, Cycle1 Day 22, fasted, N=3, read-out: AUC0-24 (Geometric Mean)", "result": 1350, "unit": "ng·h/mL"},
      {"measurement": "AUC(0-t)", "setting": "human, plasma, oral, 20 mg, repeated 20 mg once daily, Cycle1 Day 22, fasted, N=3, read-out: AUC0-24 (Mean ± SD)", "result": "1630 ± 1120", "unit": "ng·h/mL"},
      {"measurement": "Cmax", "setting": "human, plasma, oral, 20 mg, repeated 20 mg once daily, Cycle1 Day 22, fasted, N=3, read-out: Cmax (Geometric Mean)", "result": 203, "unit": "ng/mL"},
      {"measurement": "Cmax", "setting": "human, plasma, oral, 20 mg, repeated 20 mg once daily, Cycle1 Day 22, fasted, N=3, read-out: Cmax (Mean ± SD)", "result": "218 ± 95.3", "unit": "ng/mL"},
      {"measurement": "Tmax", "setting": "human, plasma, oral, 20 mg, repeated 20 mg once daily, Cycle1 Day 22, fasted, N=3, read-out: tmax (median)", "result": 2.17, "unit": "h"},
      {"measurement": "Vd/F", "setting": "human, plasma, oral, 20 mg, single 20 mg, Cycle1 Day 1, fasted, N = 1, read-out: Vss/F (Geometric Mean)", "result": 81.9, "unit": "L"},
      {"measurement": "Vd/F", "setting": "human, plasma, oral, 20 mg, single 20 mg, Cycle1 Day 1, fasted, N = 1, read-out: Vss/F (Mean ± SD)", "result": 81.9, "unit": "L"},
      {"measurement": "AUC(0-t)", "setting": "human, plasma, oral, 20 mg, single 20 mg, Cycle1 Day 1, fasted, N=3, read-out: AUC0-24 (Geometric Mean)", "result": 924, "unit": "ng·h/mL"},
      {"measurement": "Cmax", "setting": "human, plasma, oral, 20 mg, single 20 mg, Cycle1 Day 1, fasted, N=3, read-out: Cmax (Geometric Mean)", "result": 183, "unit": "ng/mL"},
      {"measurement": "Tmax", "setting": "human, plasma, oral, 20 mg, single 20 mg, Cycle1 Day 1, fasted, N=3, read-out: tmax (median)", "result": 1.52, "unit": "h"},
      {"measurement": "AUC(0-t)", "setting": "human, plasma, oral, 150 mg, repeated 150 mg once daily, Cycle1 Day 22, fasted, N=2, read-out: AUC0-24 (Geometric Mean)", "result": 15000, "unit": "ng·h/mL"},
      {"measurement": "AUC(0-t)", "setting": "human, plasma, oral, 150 mg, repeated 150 mg once daily, Cycle1 Day 22, fasted, N=2, read-out: AUC0-24 (Mean ± SD)", "result": 15900, "unit": "ng·h/mL"},
      {"measurement": "Cmax", "setting": "human, plasma, oral, 150 mg, repeated 150 mg once daily, Cycle1 Day 22, fasted, N=2, read-out: Cmax (Geometric Mean)", "result": 2230, "unit": "ng/mL"},
      {"measurement": "Cmax", "setting": "human, plasma, oral, 150 mg, repeated 150 mg once daily, Cycle1 Day 22, fasted, N=2, read-out: Cmax (Mean ± SD)", "result": 2390, "unit": "ng/mL"},
      {"measurement": "Tmax", "setting": "human, plasma, oral, 150 mg, repeated 150 mg once daily, Cycle1 Day 22, fasted, N=2, read-out: tmax (median)", "result": 2.97, "unit": "h"},
      {"measurement": "Vd/F", "setting": "human, plasma, oral, 150 mg, single 150 mg, Cycle1 Day 1, fasted, N = 1, read-out: Vss/F (Geometric Mean)", "result": 61.5, "unit": "L"},
      {"measurement": "Vd/F", "setting": "human, plasma, oral, 150 mg, single 150 mg, Cycle1 Day 1, fasted, N = 1, read-out: Vss/F (Mean ± SD)", "result": 61.5, "unit": "L"},
      {"measurement": "AUC(0-t)", "setting": "human, plasma, oral, 150 mg, single 150 mg, Cycle1 Day 1, fasted, N=3, read-out: AUC0-24 (Geometric Mean)", "result": 6860, "unit": "ng·h/mL"},
      {"measurement": "AUC(0-t)", "setting": "human, plasma, oral, 150 mg, single 150 mg, Cycle1 Day 1, fasted, N=3, read-out: AUC0-24 (Mean ± SD)", "result": "9140 ± 8730", "unit": "ng·h/mL"},
      {"measurement": "Cmax", "setting": "human, plasma, oral, 150 mg, single 150 mg, Cycle1 Day 1, fasted, N=3, read-out: Cmax (Geometric Mean)", "result": 884, "unit": "ng/mL"},
      {"measurement": "Tmax", "setting": "human, plasma, oral, 150 mg, single 150 mg, Cycle1 Day 1, fasted, N=3, read-out: tmax (median)", "result": 3, "unit": "h"},
      {"measurement": "AUC(0-t)", "setting": "human, plasma, oral, 200 mg, repeated 200 mg once daily, Cycle1 Day 22, fasted, N=3, read-out: AUC0-24 (Geometric Mean)", "result": 13400, "unit": "ng·h/mL"},
      {"measurement": "AUC(0-t)", "setting": "human, plasma, oral, 200 mg, repeated 200 mg once daily, Cycle1 Day 22, fasted, N=3, read-out: AUC0-24 (Mean ± SD)", "result": "13900 ± 4380", "unit": "ng·h/mL"},
      {"measurement": "Cmax", "setting": "human, plasma, oral, 200 mg, repeated 200 mg once daily, Cycle1 Day 22, fasted, N=3, read-out: Cmax (Geometric Mean)", "result": 2030, "unit": "ng/mL"},
      {"measurement": "Cmax", "setting": "human, plasma, oral, 200 mg, repeated 200 mg once daily, Cycle1 Day 22, fasted, N=3, read-out: Cmax (Mean ± SD)", "result": "2150 ± 873", "unit": "ng/mL"},
      {"measurement": "Tmax", "setting": "human, plasma, oral, 200 mg, repeated 200 mg once daily, Cycle1 Day 22, fasted, N=3, read-out: tmax (median)", "result": 2.07, "unit": "h"},
      {"measurement": "AUC(0-t)", "setting": "human, plasma, oral, 200 mg, single 200 mg, Cycle1 Day 1, fasted, N=4, read-out: AUC0-24 (Geometric Mean)", "result": 9760, "unit": "ng·h/mL"},
      {"measurement": "AUC(0-t)", "setting": "human, plasma, oral, 200 mg, single 200 mg, Cycle1 Day 1, fasted, N=4, read-out: AUC0-24 (Mean ± SD)", "result": "13600 ± 13800", "unit": "ng·h/mL"},
      {"measurement": "Cmax", "setting": "human, plasma, oral, 200 mg, single 200 mg, Cycle1 Day 1, fasted, N=4, read-out: Cmax (Geometric Mean)", "result": 1340, "unit": "ng/mL"},
      {"measurement": "Vd/F", "setting": "human, plasma, oral, 200 mg, single 200 mg, Cycle1 Day 1, fasted, N=4, read-out: Vss/F (Geometric Mean)", "result": 173, "unit": "L"},
      {"measurement": "Vd/F", "setting": "human, plasma, oral, 200 mg, single 200 mg, Cycle1 Day 1, fasted, N=4, read-out: Vss/F (Mean ± SD)", "result": "213 ± 127", "unit": "L"},
      {"measurement": "Tmax", "setting": "human, plasma, oral, 200 mg, single 200 mg, Cycle1 Day 1, fasted, N=4, read-out: tmax (median)", "result": 2.98, "unit": "h"},
      {"measurement": "AUC(0-t)", "setting": "human, plasma, oral, 400 mg, repeated 400 mg once daily, Cycle1 Day 22, fasted, N=3, read-out: AUC0-24 (Geometric Mean)", "result": 29500, "unit": "ng·h/mL"},
      {"measurement": "AUC(0-t)", "setting": "human, plasma, oral, 400 mg, repeated 400 mg once daily, Cycle1 Day 22, fasted, N=3, read-out: AUC0-24 (Mean ± SD)", "result": "36800 ± 23500", "unit": "ng·h/mL"},
      {"measurement": "Cmax", "setting": "human, plasma, oral, 400 mg, repeated 400 mg once daily, Cycle1 Day 22, fasted, N=3, read-out: Cmax (Geometric Mean)", "result": 3370, "unit": "ng/mL"},
      {"measurement": "Cmax", "setting": "human, plasma, oral, 400 mg, repeated 400 mg once daily, Cycle1 Day 22, fasted, N=3, read-out: Cmax (Mean ± SD)", "result": "4020 ± 2460", "unit": "ng/mL"},
      {"measurement": "Tmax", "setting": "human, plasma, oral, 400 mg, repeated 400 mg once daily, Cycle1 Day 22, fasted, N=3, read-out: tmax (median)", "result": 2.95, "unit": "h"},
      {"measurement": "AUC(0-t)", "setting": "human, plasma, oral, 400 mg, single 400 mg, Cycle1 Day 1, fasted, N=3, read-out: AUC0-24 (Geometric Mean)", "result": 37600, "unit": "ng·h/mL"},
      {"measurement": "AUC(0-t)", "setting": "human, plasma, oral, 400 mg, single 400 mg, Cycle1 Day 1, fasted, N=3, read-out: AUC0-24 (Mean ± SD)", "result": "40400 ± 17500", "unit": "ng·h/mL"},
      {"measurement": "Cmax", "setting": "human, plasma, oral, 400 mg, single 400 mg, Cycle1 Day 1, fasted, N=3, read-out: Cmax (Geometric Mean)", "result": 4120, "unit": "ng/mL"},
      {"measurement": "Vd/F", "setting": "human, plasma, oral, 400 mg, single 400 mg, Cycle1 Day 1, fasted, N=3, read-out: Vss/F (Geometric Mean)", "result": 112, "unit": "L"}
    ]}
  ]
}
